Measured values as given in patent US5880258A (dated 1999).
*1 amine or outer side, *2 acyl side, *3 side chain or, on linkers, in order; H or OH if unused. Where a SMILES comes first, the peptide text is derived from it. [ ]: non-standard residue; d: D form. The star is where a group is joined. sY = N[C@@H](Cc1ccc(OS(=O)(=O)O)cc1)C(=O)O; X2 = CC(C)C[C@H](N*)C(=O)NP(=O)(O)O; Asu = N[C@@H](CCCCCC(=O)O)C(=O)O; dAsu = N[C@H](CCCCCC(=O)O)C(=O)O; NH(3-hydroxypropyl) = OCCCN*; Suc = O=C(CCC(=O)[*:2])[*:1]; Leu(ol) = CC(C)C[C@H](N)CO; X1 = NS(=O)(=O)CCN*

Target: thrombin (Homo sapiens, UniProt P00734)
Experiment: anti-thrombin activity; clotting assay (coagulation time with fibrinogen as substrate)
Assay type: biochemical
Parameters: 100 μl of human-thrombin prepared at 10 NIH units/ml in aforesaid buffer
Conditions: for Potency: calculated using the definition that HV-1 (54-65) potency is 1; for IC50: concentration corresponding to 50 thrombin units, human-thrombin 10 NIH units/ml, human-fibrinogen 6 mg/ml, read-out: 50% Inhibition Concentration (converted)
Method: Measurement of anti-thrombin activity was done by looking at anti-coagulant activity as an index using fibrinogen as the substrate. That is, the compounds were dossolved in 200 μl of 0.1 mM Tris-HCl buffer (pH7.5) containing 0.1% polyethyleneglycol-6000, 100 μl of human-thrombin prepared at 10 NIH units/ml in aforesaid buffer, were added 200 μl of human-fibrinogen (Sigma) prepared at 6 mg/ml in aforesaid tris-hydrochloride buffer were added, and the coagulation time of the reaction mixtures were measured. For measuring of coagulation times, coagulation time analyzer (Amelung KC10A) was used. Obtained values were converted into units by using a previously prepared thrombin standard curve. Graphs were prepared by plotting the converted values on the vertical axis, and the concentrations of the compounds on the horizontal axis. In the graphs, the thrombin unit was defined as 100 at a compound concentration of 0. The concentration of compounds corresponding to 50 units were defined as 50% inhibitory concentrations of compounds.

| SMILES | Potency | IC50 [µM] |
| --- | --- | --- |
| CC[C@H](C)[C@H](NC(=O)[C@@H]1CCCN1C(=O)[C@H](CCC(=O)O)NC(=O)[C@H](Cc1ccccc1)NC(=O)[C@H](CC(=O)O)NC(=O)CNC(=O)CCC(=O)O)C(=O)N1CCC[C@H]1C(=O)N[C@@H](Cc1ccc(OS(=O)(=O)O)cc1)C(=O)N[C@@H](Cc1ccc(OS(=O)(=O)O)cc1)C(=O)N[C@@H](Cc1ccc(OS(=O)(=O)O)cc1)C(=O)N[C@@H](CC(C)C)C(=O)N[C@@H](CCC(N)=O)C(=O)O [Sulfated form of (E), Suc--Gly--Asp--Phe--Glu--Pro--Ile--Pro--Tyr(SO3 H)--Tyr(SO3 H)--Tyr(SO3 H)--Leu--Gln--OH] (Suc-GDFEPIP[sY][sY][sY]LQ-OH) | 44.41 | 0.0807 |
| CC[C@H](C)[C@H](NC(=O)[C@@H]1CCCN1C(=O)[C@H](CCC(=O)O)NC(=O)[C@H](Cc1ccccc1)NC(=O)CCC(=O)O)C(=O)N1CCC[C@H]1C(=O)N[C@@H](CCC(=O)O)C(=O)N[C@@H](Cc1ccc(O)cc1)C(=O)N[C@@H](Cc1ccc(O)cc1)C(=O)N[C@@H](CC(C)C)C(=O)NP(=O)(O)O [(Y)] (Suc-FEPIPEYY-X2) | – | 114 |
| CC[C@H](C)[C@H](NC(=O)[C@@H]1CCCN1C(=O)[C@H](CCC(=O)O)NC(=O)[C@H](Cc1ccccc1)NC(=O)CCC(=O)O)C(=O)N1CCC[C@H]1C(=O)N[C@@H](CCC(=O)O)C(=O)N[C@@H](Cc1ccc(OS(=O)(=O)O)cc1)C(=O)N[C@@H](Cc1ccc(OS(=O)(=O)O)cc1)C(=O)N[C@@H](CC(C)C)C(=O)N[C@@H](CCCCCC(N)=O)C(N)=O [Sulfated form of (X), Suc--Phe--Glu--Pro--Ile--Pro--Glu--Tyr(SO2 H)--Tyr(SO3 H)--Leu--(L)Asu(NH2)NH2] (Suc-FEPIPE[sY][sY]L[Asu](NH2)-NH2) | – | 2 |
| CC[C@H](C)[C@H](NC(=O)[C@@H]1CCCN1C(=O)[C@H](CCC(=O)O)NC(=O)[C@H](Cc1ccccc1)NC(=O)[C@H](CC(=O)O)NC(=O)CNC(=O)CCC(=O)O)C(=O)N1CCC[C@H]1C(=O)N[C@@H](CCC(=O)O)C(=O)N[C@@H](Cc1ccc(OS(=O)(=O)O)cc1)C(=O)N[C@@H](Cc1ccc(OS(=O)(=O)O)cc1)C(=O)N[C@@H](CC(C)C)C(=O)N[C@@H](CCC(N)=O)C(N)=O [Sulfated form of (D), Suc--Gly--Asp--Phe--Glu--Pro--Ile--Pro--Glu--Tyr(SO3 H)--Tyr(SO3 H)--Leu--Gln--NH2] (Suc-GDFEPIPE[sY][sY]LQ-NH2) | 57.07 | 0.0669 |
| CCNC(=O)[C@H](CC(C)C)NC(=O)[C@H](Cc1ccc(O)cc1)NC(=O)[C@H](Cc1ccc(O)cc1)NC(=O)[C@H](CCC(=O)O)NC(=O)[C@@H]1CCCN1C(=O)[C@@H](NC(=O)[C@@H]1CCCN1C(=O)[C@H](CCC(=O)O)NC(=O)[C@H](Cc1ccccc1)NC(=O)CCC(=O)O)[C@@H](C)CC [(R)] (Suc-FEPIPEYYL-NHEt) | 0.18 | 27.8 |
| CC[C@H](C)[C@H](NC(=O)[C@@H]1CCCN1C(=O)[C@H](CCC(=O)O)NC(=O)[C@H](Cc1ccccc1)NC(=O)CCC(=O)O)C(=O)N1CCC[C@H]1C(=O)N[C@@H](CCC(=O)O)C(=O)N[C@@H](Cc1ccc(OS(=O)(=O)O)cc1)C(=O)N[C@@H](Cc1ccc(OS(=O)(=O)O)cc1)C(=O)N[C@@H](CC(C)C)C(=O)N[C@H](CCC(=O)O)C(=O)O [Sulfated form of (T), Suc--Phe--Glu--Pro--Ile--Pro--Glu--Tyr(SO3 H)--Tyr(SO3 H)--Leu--(D)Glu--OH] (Suc-FEPIPE[sY][sY]L[dE]-OH) | 8.32 | 0.509 |
| CC[C@H](C)[C@H](NC(=O)[C@H](CCC(=O)O)NC(=O)[C@H](CCC(=O)O)NC(=O)[C@H](Cc1ccccc1)NC(=O)[C@H](CC(=O)O)NC(=O)CN)C(=O)N1CCC[C@H]1C(=O)N[C@@H](Cc1ccc(O)cc1)C(=O)N[C@@H](Cc1ccc(O)cc1)C(=O)N[C@@H](Cc1ccc(OS(=O)(=O)O)cc1)C(=O)N[C@@H](CC(C)C)C(=O)N[C@@H](CCC(N)=O)C(=O)O (single isomer, unassigned) [Sulfated form of (B) peak 3, Gly--Asp--Phe--Glu--Glu--Ile--Pro--Tyr--Tyr--Tyr(SO3 H)--Leu--Gln] | – | 2.49 |
| CC[C@H](C)[C@H](NC(=O)[C@@H]1CCCN1C(=O)[C@H](CCC(=O)O)NC(=O)[C@H](Cc1ccccc1)NC(=O)CCC(=O)O)C(=O)N1CCC[C@H]1C(=O)N[C@@H](CCC(=O)O)C(=O)N[C@@H](Cc1ccc(OS(=O)(=O)O)cc1)C(=O)N[C@@H](Cc1ccc(OS(=O)(=O)O)cc1)C(=O)N[C@@H](CC(C)C)C(=O)O [Sulfated form of (Q), Suc--Phe--Glu--Pro--Ile--Pro--Glu--Tyr (SO3 H)--Tyr(SO3 H)--Leu--OH] (Suc-FEPIPE[sY][sY]L-OH) | 1.85 | 2.49 |
| CC[C@H](C)[C@H](NC(=O)[C@@H]1CCCN1C(=O)[C@H](CCC(=O)O)NC(=O)[C@H](Cc1ccccc1)NC(=O)CCC(=O)O)C(=O)N1CCC[C@H]1C(=O)N[C@@H](CCC(=O)O)C(=O)N[C@@H](Cc1ccc(O)cc1)C(=O)N[C@@H](Cc1ccc(O)cc1)C(=O)N[C@@H](CC(C)C)C(=O)N[C@H](CCCCCC(N)=O)C(N)=O [(W)] (Suc-FEPIPEYYL[dAsu](NH2)-NH2) | – | 24.3 |
| CC[C@H](C)[C@H](NC(=O)[C@H](CCC(=O)O)NC(=O)[C@H](CCC(=O)O)NC(=O)[C@H](Cc1ccccc1)NC(=O)[C@H](CC(=O)O)NC(=O)CN)C(=O)N1CCC[C@H]1C(=O)N[C@@H](CCC(=O)O)C(=O)N[C@@H](Cc1ccc(O)cc1)C(=O)N[C@@H](Cc1ccc(OS(=O)(=O)O)cc1)C(=O)N[C@@H](CC(C)C)C(=O)N[C@@H](CCC(N)=O)C(=O)O [Sulfated form of (A), Gly--Asp--Phe--Glu--Glu--Ile--Pro--Glu--Tyr--Tyr(SO3 H)--Leu--Gln] (H-GDFEEIPEY[sY]LQ-OH) | – | 2.15 |
| CC[C@H](C)[C@H](NC(=O)[C@@H]1CCCN1C(=O)[C@H](CCC(=O)O)NC(=O)[C@H](Cc1ccccc1)NC(=O)CCC(=O)O)C(=O)N1CCC[C@H]1C(=O)N[C@@H](CCC(=O)O)C(=O)N[C@@H](Cc1ccc(O)cc1)C(=O)N[C@@H](Cc1ccc(O)cc1)C(=O)N[C@H](CO)CC(C)C [(P)] (Suc-FEPIPEYY[Leu(ol)]) | – | 82.7 |
| CC[C@H](C)[C@H](NC(=O)[C@@H]1CCCN1C(=O)[C@H](CCC(=O)O)NC(=O)[C@H](Cc1ccccc1)NC(=O)CCC(=O)O)C(=O)N1CCC[C@H]1C(=O)N[C@@H](CCC(=O)O)C(=O)N[C@@H](Cc1ccc(OS(=O)(=O)O)cc1)C(=O)N[C@@H](Cc1ccc(OS(=O)(=O)O)cc1)C(=O)O [Sulfated form of (I), Suc--Phe--Glu--Pro--Ile--Pro--Glu--Tyr(SO3 H)--Tyr(SO3 H)--OH] (Suc-FEPIPE[sY][sY]-OH) | 1.62 | 3.1 |
| CC[C@H](C)[C@H](NC(=O)[C@@H]1CCCN1C(=O)[C@H](CCC(=O)O)NC(=O)[C@H](Cc1ccccc1)NC(=O)CCC(=O)O)C(=O)N1CCC[C@H]1C(=O)N[C@@H](CCC(=O)O)C(=O)N[C@@H](Cc1ccc(O)cc1)C(=O)N[C@@H](Cc1ccc(O)cc1)C(=O)N[C@@H](CC(C)C)C(=O)NCCS(N)(=O)=O [(S)] (Suc-FEPIPEYYL-X1) | – | 72.4 |
| CC[C@H](C)[C@H](NC(=O)[C@@H]1CCCN1C(=O)[C@H](CCC(=O)O)NC(=O)[C@H](Cc1ccccc1)NC(=O)CCC(=O)O)C(=O)N1CCC[C@H]1C(=O)N[C@@H](CCC(=O)O)C(=O)N[C@@H](Cc1ccc(O)cc1)C(=O)N[C@@H](Cc1ccc(O)cc1)C(=O)NCCCO [(N)] (Suc-FEPIPEYY-{NH(3-hydroxypropyl)}) | – | 84.9 |
